Results taken from US10487068B2, “Pyridazine derivatives as RORc modulators” (Genentech, Inc., priority 2015, dated 2019).
pIC50: −log10 of the molar value.

Biological target: T1, RORc ligand binding domain (Homo sapiens, UniProt P51449)
T1 sequence (P51449 269-508 limits assumed): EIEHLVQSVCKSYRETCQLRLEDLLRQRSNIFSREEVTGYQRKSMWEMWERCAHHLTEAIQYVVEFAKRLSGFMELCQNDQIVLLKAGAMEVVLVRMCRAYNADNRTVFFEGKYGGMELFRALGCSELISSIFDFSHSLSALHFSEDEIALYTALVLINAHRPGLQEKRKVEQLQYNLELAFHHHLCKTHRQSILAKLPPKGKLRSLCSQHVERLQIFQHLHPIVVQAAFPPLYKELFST
Test: In Vitro RORc Ligand Binding Assay
Conditions: RORc IC50, radioligand 25-[3H]hydroxycholesterol 6 nM; 0.6 ug/mL RORc receptor; 3 h at 25° C.

Going from CC1(C)[C@H]2CC[C@]1(c1cncc(-c3nc(C4(O)CC4)n[nH]3)n1)c1nnc(-c3c(F)cccc3F)cc12 [Example 285, 1-(5-(6-((5R,8S)-3-(2,6-difluorophenyl)-9,9-dimethyl-5,6,7,8-tetrahydro-5,8-methanocinnolin-8-yl)pyrazin-2-yl)-1H-1,2,4-triazol-3-yl)cyclopropanol] to CC1(C)[C@H]2CC[C@]1(c1cncc(-c3nc([C@@H](O)CO)n[nH]3)n1)c1nnc(-c3c(F)cccc3F)cc12 [Example 286, (R)-1-(5-(6-((5R,8S)-3-(2,6-difluorophenyl)-9,9-dimethyl-5,6,7,8-tetrahydro-5,8-methanocinnolin-8-yl)pyrazin-2-yl)-1H-1,2,4-triazol-3-yl)ethane-1,2-diol], the pIC50 falls from 8.39 to 7.97 (0.42 log units).

Compared with C[C@@H](O)CNC(=O)c1cncc([C@]23CC[C@H](c4cc(-c5c(F)cccc5F)nnc42)C3(C)C)n1 [Example 109, 6-((5S,8R)-3-(2,6-difluorophenyl)-9,9-dimethyl-5,6,7,8-tetrahydro-5,8-methanocinnolin-8-yl)-N-((R)-2-hydroxypropyl)pyrazine-2-carboxamide], C[C@H](O)CNC(=O)c1cccc([C@]23CC[C@H](c4cc(-c5c(F)cccc5F)nnc42)C3(C)C)n1 [Example 100, 6-((5S,8R)-3-(2,6-difluorophenyl)-9,9-dimethyl-5,6,7,8-tetrahydro-5,8-methanocinnolin-8-yl)-N-((S)-2-hydroxypropyl)picolinamide] is 0.32 log units lower in pIC50: 7.70 for the first, 7.38 for the second. The first is the more potent here.

CC1(C)[C@H]2CC[C@]1(c1cncc(C(=O)N[C@H]3C[C@](C)(O)C3)n1)c1nnc(-c3c(F)cccc3F)cc12 [Example 197, 6-((5R,8S)-3-(2,6-difluorophenyl)-9,9-dimethyl-5,6,7,8-tetrahydro-5,8-methanocinnolin-8-yl)-N-((1r,3S)-3-hydroxy-3-methylcyclobutyl)pyrazine-2-carboxamide] and CC1(C)[C@H]2CC[C@]1(c1cncc(C(N)=O)n1)c1nnc(-c3c(F)cccc3F)cc12 [Example 12, 6-((5R,8S)-3-(2,6-difluorophenyl)-9,9-dimethyl-5,6,7,8-tetrahydro-5,8-methanocinnolin-8-yl)pyrazine-2-carboxamide] are within 0.2 log units of each other in pIC50: 7.85 for the first, 7.74 for the second.

CC1(C)[C@H]2CC[C@]1(c1ccnc(-n3cnc(N)n3)n1)c1nnc(-c3c(F)cccc3F)cc12 [Example 305] and Cc1nc(C)n(-c2nccc([C@@]34CC[C@@H](c5cc(-c6c(F)cccc6F)nnc53)C4(C)C)n2)n1 [Example 352] are within 0.2 log units of each other in pIC50: 7.71 for the first, 7.82 for the second.

Going from C[C@H](O)c1nnc(-c2cncc([C@@]34CC[C@@H](c5cc(-c6c(F)cccc6F)nnc53)C4(C)C)n2)[nH]1 [Example 224, (S)-1-(5-(6-((5R,8S)-3-(2,6-difluorophenyl)-9,9-dimethyl-5,6,7,8-tetrahydro-5,8-methanocinnolin-8-yl)pyrazin-2-yl)-4H-1,2,4-triazol-3-yl)ethanol] to C[C@H](O)c1nnc(-c2nccc([C@@]34CC[C@@H](c5cc(-c6c(F)cccc6F)nnc53)C4(C)C)n2)[nH]1 [Example 263], the pIC50 falls from 7.91 to 7.68 (0.23 log units).

Going from CC1(C)[C@H]2CC[C@]1(c1cccc(C(O)CO)n1)c1nnc(-c3c(F)cccc3F)cc12 (stereo partly drawn) [Example 237, 1-(6-((5R,8S)-3-(2,6-difluorophenyl)-9,9-dimethyl-5,6,7,8-tetrahydro-5,8-methanocinnolin-8-yl)pyridin-2-yl)ethane-1,2-diol] to CC1(C)[C@H]2CC[C@]1(c1cccc(CNC(=O)CO)n1)c1nnc(-c3c(F)cccc3F)cc12 [Example 116, N-((6-((5R,8S)-3-(2,6-difluorophenyl)-9,9-dimethyl-5,6,7,8-tetrahydro-5,8-methanocinnolin-8-yl)pyridin-2-yl)methyl)-2-hydroxyacetamide], the pIC50 falls from 8.59 to 7.82 (0.77 log units). The first is the more potent here.

First: COc1ccnc([C@@]23CC[C@@H](c4cc(-c5c(F)cccc5F)nnc42)C3(C)C)c1 [Example 26]
Second: CN(C)C(=O)c1ccnc([C@@]23CC[C@@H](c4cc(-c5c(F)cccc5F)nnc42)C3(C)C)c1 [Example 76]
The pIC50 of the first is 1.41 log units higher: 7.24 for the first, 5.83 for the second. The first is the more potent here.

First: CC1(C)[C@H]2CC[C@]1(c1cccc(C(=O)NC3COC3)n1)c1nnc(-c3c(F)cccc3F)cc12 [Example 60, 6-((5R,8S)-3-(2,6-difluorophenyl)-9,9-dimethyl-5,6,7,8-tetrahydro-5,8-methanocinnolin-8-yl)-N-(oxetan-3-yl)picolinamide]
Second: CC1(C)[C@H]2CC[C@]1(c1cccc(-c3cn[nH]c3)n1)c1nnc(-c3c(F)cccc3F)cc12 [Example 229]
The pIC50 of the first is 0.65 log units lower: 7.87 for the first, 8.52 for the second. The second is the more potent here.

Compared with CC1(C)[C@H]2CC[C@]1(c1cncc(-c3cnco3)n1)c1nnc(-c3c(F)cccc3F)cc12 [Example 184, 5-(6-((5R,8S)-3-(2,6-difluorophenyl)-9,9-dimethyl-5,6,7,8-tetrahydro-5,8-methanocinnolin-8-yl)pyrazin-2-yl)oxazole], Cc1ncc(-c2cncc([C@@]34CC[C@@H](c5cc(-c6c(F)cccc6F)nnc53)C4(C)C)n2)o1 [Example 118, 5-(6-((5R,8S)-3-(2,6-difluorophenyl)-9,9-dimethyl-5,6,7,8-tetrahydro-5,8-methanocinnolin-8-yl)pyrazin-2-yl)-2-methyloxazole] is 0.59 log units lower in pIC50: 8.48 for the first, 7.89 for the second. The first is the more potent here.

Going from Cc1nnc(-c2ccnc([C@@]34CC[C@@H](c5cc(-c6c(F)cccc6F)nnc53)C4(C)C)c2)o1 [Example 66] to Cc1nnc(-c2nccc([C@@]34CC[C@@H](c5cc(-c6c(F)cccc6F)nnc53)C4(C)C)n2)[nH]1 [Example 178], the pIC50 rises from 6.79 to 7.56 (0.77 log units).

Compared with CC1(C)[C@H]2CC[C@]1(c1ccnc(-c3cc[nH]c(=O)c3)n1)c1nnc(-c3c(F)cccc3F)cc12 [Example 386], CC1(C)[C@H]2CC[C@]1(c1ccnc(-c3ccc(CO)nc3)n1)c1nnc(-c3c(F)cccc3F)cc12 [Example 374] is 0.25 log units higher in pIC50: 8.01 for the first, 8.26 for the second.

CC1(C)[C@H]2CC[C@]1(c1cncc(CO)n1)c1nnc(-c3c(F)cccc3F)cc12 [Example 87, (6-((5R,8S)-3-(2,6-difluorophenyl)-9,9-dimethyl-5,6,7,8-tetrahydro-5,8-methanocinnolin-8-yl)pyrazin-2-yl)methanol] and CNS(=O)(=O)c1cncc([C@@]23CC[C@@H](c4cc(-c5c(F)cccc5F)nnc42)C3(C)C)n1 [Example 425, 6-((5R,8S)-3-(2,6-difluorophenyl)-9,9-dimethyl-5,6,7,8-tetrahydro-5,8-methanocinnolin-8-yl)-N-methylpyrazine-2-sulfonamide] are within 0.2 log units of each other in pIC50: 7.80 for the first, 7.94 for the second.

First: CC1(C)[C@H]2CC[C@]1(c1cncc(-c3nc([C@@](C)(O)C(F)(F)F)co3)n1)c1nnc(-c3c(F)cccc3F)cc12 [Example 427, (R)-2-(2-(6-((5R,8S)-3-(2,6-difluorophenyl)-9,9-dimethyl-5,6,7,8-tetrahydro-5,8-methanocinnolin-8-yl)pyrazin-2-yl)oxazol-4-yl)-1,1,1-trifluoropropan-2-ol]
Second: CC[C@@H](O)c1coc(-c2cncc([C@@]34CC[C@@H](c5cc(-c6c(F)cccc6F)nnc53)C4(C)C)n2)n1 [Example 382, (R)-1-(2-(6-((5R,8S)-3-(2,6-difluorophenyl)-9,9-dimethyl-5,6,7,8-tetrahydro-5,8-methanocinnolin-8-yl)pyrazin-2-yl)oxazol-4-yl)propan-1-ol]
The pIC50 of the first is 0.34 log units lower: 7.80 for the first, 8.14 for the second.

CC1(C)[C@H]2CC[C@]1(c1nccc(-n3ccnc3)n1)c1nnc(-c3c(F)cccc3F)cc12 [Example 408, (5R,8R)-8-(4-(1H-imidazol-1-yl)pyrimidin-2-yl)-3-(2,6-difluorophenyl)-9,9-dimethyl-5,6,7,8-tetrahydro-5,8-methanocinnoline] and CC1(C)[C@H]2CC[C@]1(c1cccc(-n3cnnc3)n1)c1nnc(-c3c(F)cccc3F)cc12 [Example 216] are within 0.2 log units of each other in pIC50: 7.96 for the first, 7.90 for the second.

First: CC1(C)[C@H]2CC[C@]1(c1cccc(C#N)n1)c1nnc(-c3c(F)cccc3Cl)cc12 [Example 173, 6-((5R,8S)-3-(2-chloro-6-fluorophenyl)-9,9-dimethyl-5,6,7,8-tetrahydro-5,8-methanocinnolin-8-yl)picolinonitrile]
Second: CC1(C)[C@H]2CC[C@]1(c1ccnc(NC[C@H](O)CO)n1)c1nnc(-c3c(F)cccc3F)cc12 [Example 153]
The pIC50 of the first is 0.55 log units higher: 8.35 for the first, 7.80 for the second. The first is the more potent here.

CC1(C)[C@H]2CC[C@]1(c1ccnc(C3CCN(S(C)(=O)=O)CC3)n1)c1nnc(-c3c(F)cccc3F)cc12 [Example 349] and CC1(C)[C@H]2CC[C@]1(c1ccnc(N3CC[C@H](O)C3)n1)c1nnc(-c3c(F)cccc3F)cc12 [Example 330] are within 0.2 log units of each other in pIC50: 8.20 for the first, 8.34 for the second.

Compared with CC1(C)[C@H]2CC[C@]1(c1nc(-n3ccc(CO)n3)ncc1F)c1nnc(-c3c(F)cccc3F)cc12 [Example 287], CC1(C)[C@H]2CC[C@]1(c1nc(-c3nc(CO)no3)ncc1F)c1nnc(-c3c(F)cccc3F)cc12 [Example 288, (5-(4-((5R,8S)-3-(2,6-difluorophenyl)-9,9-dimethyl-5,6,7,8-tetrahydro-5,8-methanocinnolin-8-yl)-5-fluoropyrimidin-2-yl)-1,2,4-oxadiazol-32-(1-(4-((5R,8S)-3-(2,6-difluorophenyl)-9,9-dimethyl-5,6,7,8-tetrahydro-5,8-methanocinnolin-8-yl)pyrimidin-2-yl)-1H-pyrazol-3-yl)propan-2-ol-yl)methanol] is 0.23 log units lower in pIC50: 7.92 for the first, 7.69 for the second.

Compared with CC1(C)[C@H]2CC[C@]1(c1cncc(-c3nc(C(=O)NCCO)co3)n1)c1nnc(-c3c(F)cccc3F)cc12 [Example 326, 2-(6-((5R,8S)-3-(2,6-difluorophenyl)-9,9-dimethyl-5,6,7,8-tetrahydro-5,8-methanocinnolin-8-yl)pyrazin-2-yl)-N-(2-hydroxyethyl)oxazole-4-carboxamide], CC1(C)[C@H]2CC[C@]1(c1ccnc(NC[C@@H](O)CO)n1)c1nnc(-c3c(F)cccc3F)cc12 [Example 154] is 0.62 log units lower in pIC50: 8.00 for the first, 7.38 for the second. The first is the more potent here.
